Here are results for seven molecules from patent US20030134779A1, “Method and composition for treatment and/or prevention of antibiotic-resistant microorganism infections” (priority 2002, published 2003).

Assay [1] deals with S. aureus PC-1. The experiment in a line: Bacterial growth in MHB. It is filed as cell-based, Staphylococcus aureus. The following applies: LF or LFC alone, sub-MIC. As to the method:
(§1) The effect of LF or LFC at concentration sub-MICs alone or in combination with sub-MICs of antibiotics on bacterial growth rate of S. aureus, E. coli and K. pneumoniae was determined by monitoring bacterial cultures in MHB with the O.D.600 nm or by the count of colony forming unit per ml (cfu/ml). A volume of 2.5 ml of overnight cultures in MHB adjusted to 0.5-1 McFarland standard in saline were used to inoculate a final volume of 25 ml of fresh MHB containing the desired concentration of tested compounds. All flasks were then incubated at 37° C. with agitation (200 rpm) for 9 h. Aliquots were removed every hour to determine the culture turbidity using the spectrophotometer Philips PU 8800 (Pye Unican Ltd, Cambridge, UK). The combined antibiotic effect on bacterial growth was also determined using concentrations of LF in the presence of different concentrations of antibiotics. Briefly, a volume of 3 ml of fresh MHB containing desired concentration of drugs was adjusted to an optical density of 0.4 at 540 nm after an overnight culture. The culture was then incubated at 37° C with agitation (200 rpm). After incubation, aliquots were removed to determine the culture turbidity (OD540nm) or cfu/ml. To determine the influence of the level of iron on of the growth inhibition by the test compound, 5 μM of FeCl3 were added to the media.

Assay [2] has as its system S. aureus PC-1. Description: Cell morphology by transmission electron microscopy. In kind it is cell-based, Staphylococcus aureus. As for the experimental part:
Bacterial cells were grown overnight on MHA or MHB containing sub-MICs of penicillin G with or without LF or LFC. Microorganisms were prepared for transmission electron microscopy by fixation with glutaraldehyde followed by ferritin labelling. This method allows good- preservation of capsular material. Briefly, bacterial cells grown in the presence or absence of antibiotics were fixed in cacodylate buffer (0.1 M, pH 7.0) containing 5% (v/v) glutaraldehyde, for 2 h at 20° C. Fixed microorganims were suspended in cacodylate buffer and allowed to react with the polycationic ferritin (Sigma Chemicals, St-Louis, Mo.; final concentration 1.0 mg/ml) for 30 min at 20° C. The reaction was slowed down by 10-fold dilution with buffer, and the microorganisms were centrifuged and washed three times in cacodylate buffer. Bacterial cells were then immobilized in 4% (w/v) agar, washed 5 times in cacodylate buffer and post-fixed with 2% (w/v) osmium tetroxide for 2 h. Washings were repeated as above, and the samples dehydrated in a graded series of acetone washes. Samples were then washed twice in propylene oxide and embedded in Spurr low-viscosity resin. Thin sections were post-stained with uranyl acetate and lead citrate and examined with an electron microscope (Philips 201) at an accelerating voltage of 60 kV.
Bacterial cells of PC-1 (a constitutively high producing β-lactamase strain) were grown overnight in MHB containing 8 μg/ml of penicillin G, 16 μg/ml of LFC alone or in combination for 4-h at 37° C. with agitation at 150 rpm. Bacteria cell morphology was evaluated by transmission electron microscopy after fixation and ferritin labelling method as previously described.

The test system of assay [3] is β-lactamase activity of S. aureus PC-1. The experiment in a line: β-lactamase activity, nitrocefin assay, bovine LF/LFC. It is filed as cell-based. The conditions noted are these: LF 1 mg/ml (P<0.05); LFC 32 or 64 μg/ml (P<0.001). As to the method:
The effects of sub-MICs of LF (1 mg/ml), LFC (32 and 64 μg/ml) alone or in combination with ampicillin (4μg/ml) or penicillin G (8 μg/ml) were evaluated on the β-lactamase activity of S. aureus strains SHY97-4320 and PC-1. The chromogenic cephalosporin nitrocefin (Becton Dickinson, Microbiology, Cockeysville, Md.) was used in a quantitative spectrophotometric assay. Bacterial cells were first exposed during 4 and 22-h to drugs in broth. The number of bacteria (cfu/ml) were determined and cells aliquots were centrifuged at each point in time. The pellets were suspended in 10 mM HEPES buffer (pH 7.4) to an OD415 nm of 1 for PC-1 and 2 for SHY97-4320. Nitrocefin (100 μM) was added to 100 μl of cells in a final volume of 1 ml. Hydrolysis was measured at 486 nm on spectrophotometer. β-lactamase activity was expressed as ΔO.D.486 nm/min and corrected for bacterial OD.

The test system of assay [4] is S. aureus strains. Description: Disk diffusion susceptibility test and cefinase test. It is filed as cell-based, Staphylococcus aureus. The conditions noted are these: β-lactamase producing strains. As for the experimental part: For quality control, disk diffusion susceptibility tests, as recommended by the National Committee for Clinical Laboratory Standard, were performed on all strains using standard disk of various antibiotics. After 18 h of incubation at 37° C., the diameter of the zone of complete inhibition of bacterial growth around each disk was measured. Isolates were categorized as sensitive or resistant for a given antibiotic using the recommended interpretative guidelines of the manufacturer.

For assay [5], the system named is E. coli SHY97-3923. Description: Bacterial growth in MHB. In kind it is cell-based, Escherichia coli. As to the method: as §1
For assay [6], the system named is Escherichia coli strain harboring TEM-12 beta-lactamase. The conditions noted are these: cited from earlier work.
Assay [7] deals with Escherichia coli strain harboring wild TEM-1 beta-lactamase. The conditions noted are these: cited from earlier work.
Assay [8] concerns Escherichia coli strain harboring TEM-10 beta-lactamase. The following applies: cited from earlier work.
Assay [9] relates to S. typhimurium strain DT 104. The conditions noted are these: isolates with decreased fluoroquinolone sensitivity; cited from earlier work.
Assay [10] relates to S. aureus SHY97-3906. Description: Bacterial growth in MHB. It is filed as cell-based, Staphylococcus aureus. The conditions noted are these: combination of erythromycin and LF; 18-h of incubation. As to the method:
as §1

Assay [11] has as its system K. pneumoniae SHY99-723. The experiment in a line: Bacterial growth in MHB. It is filed as cell-based, Klebsiella pneumoniae. As to the method: as §1

In the case of `CC[C@H](C)[C@@H]1NC(=O)[C@H](CO)NC(=O)[C@@H]2CCCN2C(=O)[C@H](C)NC(=O)CNC(=O)[C@H](CC(C)C)NC(=O)[C@H](CCCCN)NC(=O)[C@H](CCCCN)NC(=O)[C@H](CCSC)NC(=O)[C@H](CCCNC(=N)N)NC(=O)[C@H](Cc2c[nH]c3ccccc23)NC(=O)[C@H](CCC(N)=O)NC(=O)[C@H](Cc2c[nH]c3ccccc23)NC(=O)[C@H](CCCNC(=N)N)NC(=O)[C@H](CCCNC(=N)N)NC(=O)[C@@H](NC(=O)[C@H](CCCCN)NC(=O)[C@@H](N)Cc2ccccc2)CSSC[C@@H](C(=O)N[C@H](C(=O)N[C@@H](CCCNC(=N)N)C(=O)N[C@@H](CCCNC(=N)N)C(=O)N[C@@H](C)C(=O)N[C@@H](Cc2ccccc2)C(=O)O)C(C)C)NC(=O)[C@H]([C@@H](C)O)NC1=O` [LFC], the growth result in assay [1] is on record as “delayed growth”. Besides, in assay [2] (LFC 16 μg/ml), the “mesosome structures arising from the septa and cell wall” value is “induced formation of mesosome structures”. The bacterial lysis entry in assay [2] (LFC 16 μg/ml alone, 4-h) was “A large percentage of lysed bacteria”. Moreover, the “bacterial lysis by LFC” value in assay [2] (LFC 16 μg/ml in the presence of penicillin G 8 μg/ml) is on record as “enhanced”. Besides, the “shape and size of cells” value in [2] (exposure to LF or LFC) was “affected the shape and the size”. Besides, in assay [3], the β-lactamase activity result was “strong”.

Turning to `CC1(C)S[C@@H]2[C@H](NC(=O)[C@H](N)c3ccccc3)C(=O)N2[C@H]1C(=O)O` [ampicillin], in assay [4], the “susceptibility by standard disk diffusion and cefinase test” value is reported as “resistance”.

For `Cc1nnc(SCC2=C(C(=O)O)N3C(=O)[C@@H](NC(=O)Cn4cnnn4)[C@H]3SC2)s1` [cefazolin], the growth result is recorded as “not able to reduce growth” in [5] (cefazolin alone (0.5 g)) and “completely inhibit bacterial growth” in [5] (cefazolin with LFC).

Take `CO/N=C(\C(=O)N[C@@H]1C(=O)N2C(C(=O)O)=C(COC(C)=O)CS[C@H]12)c1csc(N)n1` [cefotaxime]: the “conventional MIC of cefotaxime” value in assay [6] was 0.06 µg/mL. For the same molecule, the MIC of cefotaxime in [7] is 0.03 µg/mL; in [8], 0.25 µg/mL.

As for `O=C(O)c1cn(C2CC2)c2cc(N3CCNCC3)c(F)cc2c1=O` [ciprofloxacin], the “MIC's of ciprofloxacin” value in assay [9] is 0.25 to 1.0 µg/mL.

With `CC[C@H]1OC(=O)[C@H](C)[C@@H](O[C@H]2C[C@@](C)(OC)[C@@H](O)[C@H](C)O2)[C@H](C)[C@@H](O[C@@H]2O[C@H](C)C[C@H](N(C)C)[C@H]2O)[C@](C)(O)C[C@@H](C)C(=O)[C@H](C)[C@@H](O)[C@]1(C)O` [erythromycin], the growth entry in [10] is on record as “affected”.

neomycin: the “effect of neomycin on bacterial growth” value in [5] (16 μg/ml LFC (1/16 MIC) added) and in assay [5] (1 mg/ml of LF added) was “significantly enhanced” each time. In addition, the “reduction of bacterial growth rate with neomycin” value in [11] (16 μg/ml LFC (1/16 MIC) added) and in assay [11] (0.5 mg/ml of LF added) was 2 times throughout.
